Data: patent US20210292710A1, “METHOD FOR ENHANCING IMMUNE FUNCTION OF IMMUNE CELL AND IMMUNE CELL LINE PRODUCED USING THE SAME” (INDUSTRY-ACADEMIC COOPERATION FOUNDATION, YONSEI UNIVERSITY, priority 2020, published 2021)

Assays:
[1] = tested on: T cells; assay: Extracellular acidification rate (ECAR) of T cells; assay type: cell-based, mouse
Experimental: Further, referring to FIG. 5B, the extracellular acidification rate (ECAR) of T cells due to PI3K inhibitor treatment is shown. In this connection, to measure the extracellular acidification rate, the T cell used in FIG. 5A is used, and 1×10^5 T cells are used. Furthermore, the extracellular acidification rate refers to a measurement of glucose degradation via a change in pH resulting from lactate secretion in the medium. In this connection, as the oligomycin is injected to inhibit mitochondrial metabolism, T cells must produce ATP using only glycolysis. Thus, the extracellular acidification rate in phase 3 may mean pure glycolysis capacity. In this connection, 2DG is a molecule in which the 2-hydroxyl group of glucose is replaced with hydrogen and thus glucose may not be degraded. Furthermore, when the T cell is treated with 2DG, the extracellular acdification rate may be controlled in an upstream phase of glucose metabolism. Thus, the extracellular acidification rate in phase 4 may refer to the glucose reserve in the cell.

[2] = tested on: GLUT1; assay: GLUT1 expression in T cells due to PI3K inhibitor and AKT inhibitor treatment; assay type: cell-based; conditions: both helper and cytotoxic T cells; p<0.05
Source text: Furthermore, referring to FIG. 7, the GLUT1 expression level in the T cells due to PI3K inhibitor and AKT inhibitor treatment is shown.

[3] = tested on: AKT; assay: AKT expression in T cells due to PI3K inhibitor and mTORC1 inhibitor treatment; assay type: cell-based; conditions: RAD001 as mTORC1 inhibitor, p<0.05
Source text: Furthermore, referring to FIG. 8, AKT and GLUT1 expression levels in T cells due to PI3K inhibitor and mTORC1 inhibitor treatment are shown. In this connection, RAD001 is used as a mTORC1 inhibitor. First, referring to (a) of FIG. 8, AKT expression levels in T cells due to PI3K inhibitor and mTORC1 inhibitor treatment are shown. […] This may mean that when mTORC1 is inhibited, AKT expression is reduced, and thus mTORC1 is an important signal capable of rebounding AKT expression.

[4] = tested on: enzymes involved in glycolysis of T cells; assay: mRNA expression of enzymes involved in T cell glycolysis; assay type: cell-based, mouse; conditions: CD3+ T cells activated 72 hours with anti-CD3 and anti-CD28 beads
Experimental: (§1) Thus, referring to FIG. 4B, the results of mRNA expression of enzymes involved in glycolysis of T cells due to PI3K inhibitor treatment are shown. In this connection, in order to identify enzymes involved in glycolysis of T cells due to PI3K inhibitor treatment, the CD3+ T cells obtained in FIG. 2 are used. Furthermore, the obtained CD3+ T cell is activated for 72 hours using anti-CD3 and anti-CD28 beads to identify mRNA expression of enzymes involved in glycolysis. In this connection, CD3 secretes cytokine as a protein immunomodulator, and CD28 inhibits apoptosis. Only CD3-activated T cells may lead to apoptosis. Therefore, both CD3 and CD28 signals are used to increase T cell function and survival.

[5] = tested on: pAKT (phosphoAKT); assay: pAKT expression in CD4 and CD8 T cells by flow cytometry (MFI); assay type: cell-based, mouse; conditions: for AKT expression relative to control: after 48 hours
Experimental: First, referring to FIG. 6, an expression level of pAKT (phosphoAKT) in an active state in the T cell due to PI3K inhibitor treatment is shown. In this connection, in order to identify AKT activation of T cells due to PI3K inhibitor treatment, the CD3+ T cells obtained in FIG. 2 are used. Furthermore, the obtained CD3+ T cells are co-cultured for 48 hours together with CD11c positive dendritic cells, anti-CD3 and anti-CD28. The pAKT expression is measured via flow cytometry in 6 and 48 hours after the co-culture has started. Furthermore, expression of pAKT is indicated as mean fluorescence intensity (MFI). Furthermore, CD4 and CD8 positive cells are used as T cells to measure expression of pAKT. In this connection, CD4 and CD8 are present in the cell membrane of the T cell and are cell-binding proteins that bind to non-polymorphic regions of class II MHC and class I MHC, respectively. CD4 may be a helper T cell as a T cell lineage marker. CD8 may refer to a cytotoxic T cell.

[6] = tested on: GLUT1; assay: GLUT1 protein expression level of T cell; assay type: cell-based, mouse; conditions: CD3+ T cells activated 72 hours with anti-CD3 and anti-CD28 beads
Experimental: as §1, with “survival. Furthermore, referring to FIG. 5A, the result of GLUT1 protein expression level of T cell due to PI3K inhibitor treatment is shown. In this connection, T cell is treated in the same method as in FIG. 4B.” for “survival.”

[7] = tested on: GLUT1; assay: GLUT1 expression in T cell based on type of PI3K inhibitor
Source text: More specifically, referring to (a) of FIG. 12, the results of GLUT1 expression according to the type of PI3K inhibitor in the helper T cell are shown. In this connection, the PI3K inhibitor may include BKM 120 that may inhibit all subtypes, CAL-101 that may inhibit only p110δ, IPI-145 capable of inhibiting p110γ and P110δ, BYLT719 capable of inhibiting only p110α, and TGX-211 capable of inhibiting only p110β.
Referring to (b) of FIG. 12, the results of GLUT1 expression according to the type of PI3K inhibitor in cytotoxic T cells are shown.

[8] = tested on: lung-cancer cell line LLC2; assay: Anti-cancer effect (tumor size) in lung-cancer cell line LLC2; assay type: in vivo
Experimental: First, referring to FIG. 9A, the results of the anti-cancer effect in the lung-cancer cell line LLC2 due to PI3K inhibitor treatment are shown. […] However, when the PI3K inhibitor treatment is carried out, the tumor size is reduced compared to the control. More specifically, when the PI3K inhibitor BKM 120 treatment is carried out at 35 mpk, the tumor size on the 15th day is 300 to 350 mm^3. When BKM 120 treatment is carried out at 50 mpk, the tumor size on day 15 is found to be 90 to 100 mm^3.

## Nc1cc(C(F)(F)F)c(-c2cc(N3CCOCC3)nc(N3CCOCC3)n2)cn1 [BKM 120, buparlisib]
[1]; phase 1, 1×10^5 T cells
  extracellular acidification rate versus control: higher
[1]; phase 2, glucose injected
  extracellular acidification rate versus control: the difference between the extracellular acidification rates of the T cell group treated with PI3K inhibitor and the control increases
[1]; phase 3, oligomycin injected (glycolysis capacity)
  extracellular acidification rate versus control: higher extracellular acidification rate than that of the control
[1]; phase 4, 2-deoxy-D-glucose (2DG) injected (glucose reserve)
  extracellular acidification rate versus control: higher extracellular acidification rate than that in the control
[2]
  GLUT1 expression in iPI3K+/iAKT− group relative to iPI3K−/iAKT−, iPI3K−/iAKT+ and iPI3K+/iAKT+ groups: 2 to 3 times
[3]
  AKT expression in iPI3K+/imTOR− group relative to iPI3K−/imTOR−, iPI3K−/imTOR+ and iPI3K+/imTOR+ groups: 1.5 to 2.3 times
[4]
  mRNA expression of each glycolysis enzyme versus spleen T cells and CD3+CD28-stimulated T cells: higher
[5]; 48 hours after the start of culture
  AKT expression level relative to the AKT expression level at the start of culture: ≥ 3 times
[5]; cytotoxic T cells (CD8), 0 to 25 hours
  AKT expression versus control: lower AKT expression than that of the control
[5]; cytotoxic T cells (CD8), after 25 hours
  AKT expression versus control: higher AKT expression than that of the control
[5]; cytotoxic T cells (CD8)
  AKT expression relative to control: 1.3 to 1.7 times
[5]; helper T cell (CD4), 0 to 20 hours
  AKT expression versus control: lower AKT expression than that of the control
[5]; helper T cell (CD4), after 20 hours
  AKT expression versus control: higher AKT expression than that of the control
[5]; helper T cell (CD4)
  AKT expression relative to control: 1.5 to 2 times
[5]; immune cells cultured after PI3K inhibitor treatment
  time after the start of the culture at which the AKT level is increased again to the level before the PI3K treatment: 20 h
[6]
  GLUT1 expression level relative to control: 6 to 7 times
  percentage of T cells expressing GLUT1 among all T cells: 60 to 70%
[7]; cytotoxic T cells
  GLUT1 expression level versus BYLT719 and TGX-211 inhibitors: higher GLUT1 expression levels
[7]; helper T cell
  GLUT1 expression level versus BYLT719 and TGX-211 inhibitors: higher GLUT1 expression levels
[8]; 35 mpk, 15th day
  tumor size: 300 to 350 mm^3
[8]; 50 mpk, day 15
  tumor size: 90 to 100 mm^3
